Assay results published in US20150201661A1, “BAMBOO EXTRACTS, COMPOSITIONS AND USES THEREOF” (priority 2014, published 2015).
Marks after values point to notes of the source that are not given here.

Columns and labels:
Type in all cases: in vivo, Pseudosciaena crocea
catalase (CAT) = assay: CAT activity in liver of large yellow croaker; conditions: 5 months, feed with GBE 3.0 g/kg or astaxanthin 1.0 g/kg
Source text: (§1) Yellow croaker fish (Pseudosciaena crocea) are an important marine economic fish in China. One thousand and eight hundred of large yellow croakers with the average weight of 150.06±11.35 g, were randomly selected into three groups (each group represented by three replicates of 200 large yellow croakers each). The GBE group and astaxanthin group were feed with complete formula puffed pellet feed rich in 3.0 g/kg of GBE and 1.0 g/kg of astaxanthin, respectively. Astaxanthin is an accepted dietary additive, but is quite expensive. The reference group was feed with chilled miscellaneous fish and shrimp. The breeding time was five months. Feeding was stopped 24 h after the test. Eight test large yellow croakers were randomly selected from each replicate group (that is, 24 test large yellow croakers each group). The selected fish were weighed, the livers were segmented, and the abdominal and back muscles examined after they were killed. Adequate amount of fresh back and abdominal muscle were used for sensory evaluation, the rest were sub-packaged and stored on −20° C. refrigerator for further use. The fat content of liver and fish and the superoxide dismutase (SOD) activity, catalase (CAT) activity, malondialdehyde (MDA) content, leptin content, adiponectin content of liver were detected.

leptin = assay: Leptin level in the liver of large yellow croaker; conditions: 5 months, feed with GBE 3.0 g/kg or astaxanthin 1.0 g/kg
Source text: as §1

[1] = tested on: superoxide dismutase (SOD); assay: SOD activity in liver of large yellow croaker; conditions: 5 months, feed with GBE 3.0 g/kg or astaxanthin 1.0 g/kg
Source text: as §1

back muscle tissue = assay: Transmission electron microscopy of back muscle of large yellow croakers; conditions: FIG. 4
Source text: as §1

malondialdehyde (MDA) = assay: MDA content (lipid peroxidation) in liver of large yellow croaker; conditions: 5 months, feed with GBE 3.0 g/kg or astaxanthin 1.0 g/kg
Source text: as §1

adiponectin = assay: Adiponectin level in the liver of large yellow croaker; conditions: 5 months, feed with GBE 3.0 g/kg or astaxanthin 1.0 g/kg
Source text: as §1

[2] = Body weight and fat content of large yellow croaker; conditions: 5 months, feed with GBE 3.0 g/kg or astaxanthin 1.0 g/kg
Source text: as §1

For `CC1=C(/C=C/C(C)=C/C=C/C(C)=C/C=C/C=C(C)/C=C/C=C(C)/C=C/C2=C(C)C(=O)[C@@H](O)CC2(C)C)C(C)(C)C[C@H](O)C1=O` [ASTA, astaxanthin], which “CAT activity in the liver” value (catalase (CAT)) is on record?
The value was 22.56 ± 3.11^a U/mg prot.

And the “CAT/SOD ratio in the liver” value (catalase (CAT))?
The value was 0.13 ± 0.01^a.

What about the “LEPTIN level in the liver” value (leptin) of the same compound?
The value was 1.08 ± 0.12^b ng/mL.

What about the “SOD activity in the liver” value [1] of the same compound?
The value was 157.35 ± 10.24^a U/mg prot.

What about the “clearance of muscle bundle, order of groups” value (back muscle tissue; TEM 10000 times) of the same compound?
The value was “reference group<GBE group<astaxanthin group”.

And the “quantity of mitochondria, order of groups” value (back muscle tissue; TEM 12000 times)?
Its value is “reference group<GBE group<astaxanthin group”.

And the MDA level in the liver (malondialdehyde (MDA))?
Its MDA level in the liver is 118 ± 9.33 nmol/mg prot.

And the “ADIPONECTIN level in the liver” value (adiponectin)?
The value was 2.57 ± 0.33^c ug/mL.

What about the “overall body weight vs reference group” value ([2]; FIG. 3) of the same compound?
Its value is “no significant differences”.

And the “fat content of liver vs reference group” value ([2]; p<0.05)?
The value was “significantly lower”.

And the “fat content of muscle vs reference group” value ([2]; p<0.05)?
Its value is “significantly lower”.
